In brackets after ≈: the same amount, converted by molar mass. Entries after “also recorded” stand apart in the source; their conditions may differ.
Tests used:
[1] = Hot stage XRPD, crystal transformation on heating; format: physicochemical
[2] = DVS and isotherm curves, moisture absorption; format: physicochemical
[3] = Crystal competition experiment in water; format: physicochemical; settings: mixture of forms I-IX suspended in water, room temperature, 4 and 7 days, XRD
SRBC mouse model = test: SRBC-induced delayed-type hypersensitivity (DTH) in mice; format: in vivo, Balb/c mice; settings: 100 mg/kg gavage once a day, day 0 to day 6, FIG. 76
Experimental: Drug formulation: The compound was added to 0.5% CMC-Na solution to formulate a drug suspension (dosage is 10 mg/mL).
Induction and administration of delayed-type hypersensitivity (DTH): 30 male Balb/c mice were weighed and randomly divided into 6 groups according to body weight, with 5 mice in each group. The experimental period lasted for 7 days. On day 0, mice were sensitized by subcutaneous injection of sheep red blood cells (SRBC). The mice were performed gavage administration at 100 mg/kg (once a day) from day 0 to day 6. On day 6, the mice were injected SRBC into the right hind foot pad for challenge. Measurements were taken on the 7th day of the experiment, and the experiment was concluded.
Pharmacodynamic detection indicators of disease models: the detection and observation indicators are the redness and swelling degree and thickness of the paw pads of SRBC-induced mice. The thickness of the right paw was measured on day 6 before the SRBC injection challenge as the baseline. The thickness of the right paw was measured again at the end of the experiment, the difference in paw thickness before and after the second injection was calculated.
Statistical analysis: The experimental data were expressed as mean±standard deviation (Mean±SD). All data were statistically analyzed using T-test, with P<0.05 considered statistically significant.

[4] = Influencing factors test of crystal form (high temperature, high humidity); format: physicochemical
Experimental: (§1) Samples of crystal form I produced in Example 15 were taken, which were 15 samples of 50 mg each, and sealed with aluminum foil bags. The crystal stability of the above samples were studied under high temperature (60±2° C.), high humidity (RH90%±5%), long-term test (25° C.±2° C., RH 60%±5%) and accelerated test (40° C.±2° C., RH 75%±5%) conditions. […] The long-term and accelerated 3-month crystal form is stable.

[5] = Stability test of crystal form (long-term, accelerated); format: physicochemical
Experimental: as §1

[6] = Crystal competition experiment in anhydrous ethanol; format: physicochemical; settings: mixture of forms I-IX suspended in anhydrous ethanol, room temperature, 4 days, XRD
Experimental: 2 mg each of the aromatic heterocyclic compound of crystal form I, crystal form II, crystal form III, crystal form IV, crystal form V, crystal form VI, crystal form VII, crystal form VIII and crystal form IX was added to 3 ml of anhydrous ethanol to form a suspension.

[7] = Solubility at different pH values; format: physicochemical; settings: thermodynamic from solid
Experimental: Excess samples of crystal form I were respectively added to 10 mL of solutions with different pH value. After being shaken for 24 hours by a constant temperature shaker at 32° C. at 100 rpm, the saturated solutions (with undissolved solids at the bottom) were centrifuged and filtered, then determined linear solutions (formulated with reference substances) with different concentrations and saturated solutions with different pH values under the content item. The solubility of the samples at different pH values were calculated using the standard curve as follows, see FIG. 75 for details.

[8] = system: collagen-induced arthritis model in mice; test: Collagen-induced arthritis model in mice (mCIA); format: in vivo, DBA/1J mice; settings: 50 mg/kg once a day, FIG. 77
Experimental: 1. Construction of collagen-induced arthritis model in mice (mCIA) Experimental purpose: To test the immunosuppressive activity of YZ001052 in the mCIA model. PF-06651600 was used as a positive control compound.
Complete and incomplete Freund's adjuvants with chicken type II collagen solution were mixed in equal proportions to form emulsions. Except for the blank control group, a mixture of complete Freund's adjuvant and chicken type II collagen solution was injected subcutaneously into the base of the tail and thigh of mice on Day 0. Each mouse was injected subcutaneously with 100 μL at the base of the tail, and injected 50 μL subcutaneously at the base of both thighs (primary immunization). On day 21, mice were injected subcutaneously with 200 μL of a mixture of incomplete Freund's adjuvant and chicken type II collagen as a booster injection (second immunization). Arthritis was considered to occur if the clinical score of at least one limb was >2 points. Paw thickness measurement: Using a vernier caliper to measure the thickness of the left and right hind feet of the mouse and record it, which is the degree of paw swelling. The detection frequency was once every 3 days.

[9] = system: p-STAT5 under IL-15 stimulation in PBMC (JAK-STAT pathway); test: p-STAT5 ELISA in IL-15 stimulated hPBMC cells; format: cell-based, human; settings: 45 min compound, 30 min IL-15, ELISA
Experimental: Based on the mechanism of JAK-STAT pathway, the effect of the compounds on the JAK-STAT pathway were evaluated by using cytokine IL-15 to stimulate hPBMC cells, and using the downstream STAT5 phosphorylation level as the detection index.
1. PBMC cell counting plate: 90 μL PBMC was seeded in a 96-well plate (PBMC cell density 80,000/well).
2. Treatment with test compounds: After cells being seeded, drug treatment was carried out immediately. The drugs to be tested at 5 μL/well (final concentrations 1, 0.5, 0.1, 0.05, 0.01, and 0.005 μM) were incubated at 37° C. for 45 min.
3. Cytokine IL-15 stimulation: The cells were stimulated by 5 μL IL-15, and incubated at 37° C. for 30 min.
4. Protein sample collection: The cells were collected in a centrifuge tube and centrifuged for 5 minutes. The supernatant was discarded and cells were lysed with 1× Cell Extraction Buffer PTR.
5. p-STAT5 detection: Perform detection according to the requirements of the ELISA kit.
Experimental results: IC50 values of compounds on p-STAT5 under IL-15 stimulation in PBMC

C=CC(=O)N1CCc2c(c(-c3ccnc4[nH]ccc34)nn2C)C1 [crystal form II, 1-(1-methyl-3-(1H-pyrrolo[2,3-b]pyridin-4-yl)-1,4,6,7-tetrahydro-5H-pyrazolo[4,3-c]pyridin-5-yl)prop-2-en-1-one]
crystal transformation in hot stage XRPD [1]: transformed into crystal form I at 150 °C | moisture absorption rate [2]: about 2.4%

C=CC(=O)N1CCc2c(c(-c3ccnc4[nH]ccc34)nn2C)C1 [crystal form VIII, 1-(1-methyl-3-(1H-pyrrolo[2,3-b]pyridin-4-yl)-1,4,6,7-tetrahydro-5H-pyrazolo[4,3-c]pyridin-5-yl)prop-2-en-1-one]
crystal transformation in hot stage XRPD [1]: most of the crystals were transformed into crystal form I at 150 °C | moisture absorption rate [2]: about 1.3%

C=CC(=O)N1CCc2c(c(-c3ccnc4[nH]ccc34)nn2C)C1 [crystal form III, 1-(1-methyl-3-(1H-pyrrolo[2,3-b]pyridin-4-yl)-1,4,6,7-tetrahydro-5H-pyrazolo[4,3-c]pyridin-5-yl)prop-2-en-1-one]
crystal transformation in hot stage XRPD [1]: no crystal transformation at 140 °C | moisture absorption rate [2]: about 2.2% | crystal stability in water [3]: good crystal stability in water

C=C(F)C(=O)N1CCc2c(c(-c3ccnc4[nH]ccc34)nn2C)C1 [YZ001054]
immunosuppressive effect on SRBC-induced delayed-type hypersensitivity (right paw thickness) (SRBC mouse model): significant immunosuppressive effects

C=CC(=O)N1CCc2c(c(-c3ccnc4[nH]ccc34)nn2C)C1 [crystal form VII, 1-(1-methyl-3-(1H-pyrrolo[2,3-b]pyridin-4-yl)-1,4,6,7-tetrahydro-5H-pyrazolo[4,3-c]pyridin-5-yl)prop-2-en-1-one]
crystal transformation in hot stage XRPD [1]: transformed to crystal form I at 150 °C | moisture absorption rate [2]: about 1.3%

C=CC(=O)N1CCc2c(c(-c3ccnc4[nH]ccc34)nn2C)C1 [crystal form I, 1-(1-methyl-3-(1H-pyrrolo[2,3-b]pyridin-4-yl)-1,4,6,7-tetrahydro-5H-pyrazolo[4,3-c]pyridin-5-yl)prop-2-en-1-one]
Crystal form test result ([4]; 0 days): form I | Crystal form test result ([4]; high humidity RH90% ± 5%, 5 days): form I | Crystal form test result ([4]; high humidity RH90% ± 5%, 15 days): stable; also recorded: form I | Crystal form test result ([4]; high temperature 60 ± 2° C., 5 days): form I | Crystal form test result ([4]; high temperature 60 ± 2° C., 15 days): stable; also recorded: form I | moisture absorption rate [2]: about 2.4% | Crystal form test result ([5]; 0 days): form I | Crystal form test result ([5]; accelerated 40° C. ± 2° C., RH 75% ± 5%, 1 month): form I | Crystal form test result ([5]; accelerated 40° C. ± 2° C., RH 75% ± 5%, 3 month): stable; also recorded: form I | Crystal form test result ([5]; long-term 25° C. ± 2° C., RH 60% ± 5%, 1 month): form I | Crystal form test result ([5]; long-term 25° C. ± 2° C., RH 60% ± 5%, 3 month): stable; also recorded: form I | crystal stability in ethanol [6]: good crystal stability in the presence of ethanol | crystal stability in water [3]: good crystal stability in water | solubility at 24 h ([7]; aqueous solution of pH 1.0, simulated gastric fluid, pH 1.0, 32° C.): 14500 µg/mL (≈ 47300 µM) | solubility at 24 h ([7]; aqueous solution of pH 2.0, simulated gastric fluid, pH 2.0, 32° C.): 2740 µg/mL (≈ 8900 µM) | solubility at 24 h ([7]; aqueous solution of pH 3.8, aqueous buffer, pH 3.8, 32° C.): 118 µg/mL (≈ 385 µM) | solubility at 24 h ([7]; aqueous solution of pH 4.5, aqueous buffer, pH 4.5, 32° C.): 68.6 µg/mL (≈ 223 µM) | solubility at 24 h ([7]; aqueous solution of pH 6.8, aqueous buffer, pH 6.8, 32° C.): 58.9 µg/mL (≈ 192 µM) | solubility at 24 h ([7]; aqueous solution of pH 8.0, aqueous buffer, pH 8.0, 32° C.): 60.8 µg/mL (≈ 198 µM) | solubility at 24 h ([7]; water, 32° C.): 53.2 µg/mL (≈ 173 µM)

C=CC(=O)N1CCc2c(c(-c3ccnc4[nH]ccc34)nn2C)C1 [crystal form IX, 1-(1-methyl-3-(1H-pyrrolo[2,3-b]pyridin-4-yl)-1,4,6,7-tetrahydro-5H-pyrazolo[4,3-c]pyridin-5-yl)prop-2-en-1-one]
crystal transformation in hot stage XRPD [1]: transformed into crystal form I at 155 °C

C=CC(=O)N1Cc2c(-c3ccnc4[nH]ccc34)nn(C(C)C)c2C[C@H]1C [YZ001085]
immunosuppressive effect on SRBC-induced delayed-type hypersensitivity (right paw thickness) (SRBC mouse model): significant immunosuppressive effects

C=CC(=O)N1CCc2c(c(-c3ccnc4[nH]ccc34)nn2C)C1 [crystal form VI, 1-(1-methyl-3-(1H-pyrrolo[2,3-b]pyridin-4-yl)-1,4,6,7-tetrahydro-5H-pyrazolo[4,3-c]pyridin-5-yl)prop-2-en-1-one]
crystal transformation in hot stage XRPD [1]: transformed into crystal form I at 150 °C

C=CC(=O)N1C[C@H](Nc2ncnc3[nH]ccc23)CC[C@@H]1C [PF-06651600, reference compound]
paw swelling ([8]; CIA mice): improved to varying degrees | arthritis score ([8]; compared with the model group): significantly decreased | IC50 [9]: 85 nM

C=CC(=O)N1CCc2[nH]nc(-c3ccnc4[nH]ccc34)c2C1 [YZ001065]
immunosuppressive effect on SRBC-induced delayed-type hypersensitivity (right paw thickness) (SRBC mouse model): significant immunosuppressive effects
